As a reminder, the melting point is the temperature of the solid-liquid transition. The IC50 is the concentration that gives 50% inhibition.

Consider nine compounds from publication PMC9856062, “Nano-Zirconium Dioxide Catalyzed Multicomponent Synthesis of Bioactive Pyranopyrazoles That Target Cyclin Dependent Kinase 1 in Human Breast Cancer Cells” (Biomedicines, 2023).

One data set concerns MCF-7 cells. Kind of data set: MCF-7 cell viability assay (Alamar Blue). It is filed as cell-based, human. As to conditions: for IC50: MCF-7 cells; for effect on viability of MCF-7 cells: 0, 0.01, 0.1, 10, and 100 µM. As for the experimental part: We obtained MCF-7 cells from Procell Life Science and Technology. A humidified atmosphere of 5% CO2 was maintained at 37 °C for the culture of MCF-7 cells (2000) in MEM or Leibovitz’s L-15 medium enriched with 2% FBS [21, 22, 23, 24]. DMSO was used to prepare a stock solution of pyranopyrazoles, and the stock solution was then diluted with culture medium to achieve the desired concentration. […] Incubation with AlamarBlue assay reagent was performed for a further 4 h. According to the established protocol, the IC50 values of compounds were determined in the absence and presence of pyranopyrazoles.
Figure 4 Loss of MCF-7 cell viability produced by compounds 5b 5d, and 5f. MCF-7 cells were exposed to 5b (A), 5d (B), and 5f (C) for 72 h and the viability of cells was analyzed by Alamar Blue assays. The results are presented as mean ± S.E.M. of triplicate determinations.
On the technique in general: Alamar Blue is a resazurin reagent that responds to reducing activity.

A further data set relates to MDA-MB-231. Description: Breast cancer cell proliferation, Alamar Blue, MDA-MB-231. It is filed as cell-based. As to conditions: Homo sapiens, 72 h; MDA-MB-231 cells, 2% FBS medium, 3 days.
The next data set concerns BT-474 cells. Kind of data set: Breast cancer cell proliferation, Alamar Blue, BT-474. To be noted: Homo sapiens, 72 h, 2% FBS medium, 3 days. It is filed as cell-based.
For another data set, the system named is T47D. Description: Breast cancer cell proliferation, Alamar Blue, T47D. It is filed as cell-based. To be noted: Homo sapiens, 72 h; T47D cells, 2% FBS medium, 3 days.
A further data set has as its system MCF-10A cells. Kind of data set: Cytotoxicity to normal breast cells, Alamar Blue, MCF-10A. It is filed as cell-based. As to conditions: Homo sapiens, 72 h; MCF-10A normal breast cells, 2% FBS medium, 3 days.
The next data set deals with SKBR3. Description: Breast cancer cell proliferation, Alamar Blue, SKBR3. It is filed as cell-based. To be noted: Homo sapiens, SK-BR-3, 72 h; SKBR3 cells, 2% FBS medium, 3 days.
Data set [1] deals with T1, CDK1 (Homo sapiens, UniProt P06493). Description: CDK1 kinase assay (ADP-Glo / Kinase-Glo luminescence). It is filed as biochemical. On the set-up: 1 mg of CDK1 antibodies were used to immunoprecipitate 1 mg of protein from the total cell lysate; endogenous in cells; host or cells: total cell lysate. As to the method: Promega’s Kinase-Glo luminescence assay was used for detection of CDK1 activity. IgG was used as a negative control, and 1 mg of CDK1 antibodies were used to immunoprecipitate 1 mg of protein from the total cell lysate. At […], the reaction mixture was incubated for three hours and subsequently, beads were washed three times with lysis buffer, following overnight incubation at […]. The reactant beads were added to […] kinase reaction buffer containing 0.2 mM ATP, 2 mM DTT, 0.1 mg/mL BSA, 20 mM MgCl2, and 40 mM Tris-HCl, and beads were resuspended for 30 min at room temperature with a CDK1/2 specific substrate (p53). A total of 10 µl of ADP-GLO reagent and […] of kinase detection reagent were added to the reaction for 40 min at room temperature and 5 min at room temperature, respectively. […]
T1 sequence (P06493 whole entry): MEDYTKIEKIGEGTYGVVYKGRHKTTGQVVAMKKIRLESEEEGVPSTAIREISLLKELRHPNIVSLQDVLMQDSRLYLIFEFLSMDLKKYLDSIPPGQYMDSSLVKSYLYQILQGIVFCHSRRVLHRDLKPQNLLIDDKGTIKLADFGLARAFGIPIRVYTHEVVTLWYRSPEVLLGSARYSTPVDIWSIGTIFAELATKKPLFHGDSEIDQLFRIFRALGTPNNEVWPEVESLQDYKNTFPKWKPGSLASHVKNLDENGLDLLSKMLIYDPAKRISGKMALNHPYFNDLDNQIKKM
T1 sequence (P14635 whole entry partner): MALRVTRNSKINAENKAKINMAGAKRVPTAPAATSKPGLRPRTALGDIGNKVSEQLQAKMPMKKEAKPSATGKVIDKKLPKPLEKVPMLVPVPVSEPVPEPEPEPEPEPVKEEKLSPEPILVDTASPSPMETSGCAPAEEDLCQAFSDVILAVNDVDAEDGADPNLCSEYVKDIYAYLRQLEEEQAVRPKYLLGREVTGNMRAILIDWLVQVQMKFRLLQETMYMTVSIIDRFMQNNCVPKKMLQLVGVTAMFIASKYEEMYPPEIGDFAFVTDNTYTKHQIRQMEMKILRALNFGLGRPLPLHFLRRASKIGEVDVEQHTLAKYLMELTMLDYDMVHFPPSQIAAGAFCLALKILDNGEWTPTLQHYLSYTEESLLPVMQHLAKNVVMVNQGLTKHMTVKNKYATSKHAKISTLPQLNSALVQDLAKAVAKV
Since the ADP-GloTM Kinase Assay uses multiple enzymes as components, it should not generate a high rate of interference or false responses when screening pyranopyrazoles anti-CDK1 activity. […] Based on the luminescence units for compounds 5b and 5f, Figure 8 illustrates the standard curves generated for inhibition of cdk1 activity by pyranopyrazoles at different concentrations. […]
Figure 8 In vitro inhibition of CDK1 by compounds 5b (A) and 5f (B). The inhibitory effect of pyranopyrazoles on CKD1 measured using ADP−Glo™ reagent. […]
(In general: ADP-Glo first removes unused ATP, then detects ADP through luciferase.)

Data set [2] has as its target T1, CDK1. Set-up: method as in PMID 34156352. To be noted: literature value; cited from earlier work.

Several values for one entry are separate records, joined by “and”; a condition that tells them apart may be missing. Identical values can stand only once. Like-named read-outs stand apart in the source and are kept apart here.

On to `Cc1n[nH]c2c1C(c1ccc(-c3cncnc3)cc1)C(C#N)=C(N)O2` (stereo not shown) [5a, 6-Amino-3-methyl-4-(4-(pyrimidin-5-yl)phenyl)-1,4-dihydropy-rano [2,3-c] Pyrazole-5-carbonitrile], for which the melting point lay within 196 to 198 °C. The IC50 in the data set with MCF-7 cells (Homo sapiens, MCF7, 72 h) worked out at 55 µM.
In the case of `Cc1nn(-c2ccc(Cl)cc2)c2c1C(c1cccc(-c3cncnc3)c1)C(C#N)=C(N)O2` (stereo not shown) [5g, 6-Amino-1-(4-chlorophenyl)-3-methyl-4-(3-(pyrimidin-5-yl)phenyl)-1,4-dihydropyrano [2,3-c] Pyrazole-5-carbonitrile], the melting point is 242 to 243 °C.
`Cc1n[nH]c2c1C(c1ccc(-c3ccncc3)cc1)C(C#N)=C(N)O2` (stereo not shown) [5e, 6-Amino-3-methyl-4-(4-(pyridin-4-yl)phenyl)-1,4-dihydropyra-no [2,3-c] Pyrazole-5-carbonitrile]: the melting point lay within 232 to 234 °C. Also, the IC50 in the data set on MDA-MB-231 is 22.1 µM. The compound further came in with an IC50 in the data set with BT-474 cells of 50.2 µM. In the data set with T47D, this compound came in with an IC50 greater than 100 µM. In the data set on MCF-10A cells, this compound returned an IC50 greater than 100 µM. In the data set on MCF-7 cells (Homo sapiens, MCF7, 72 h), this compound returned an IC50 greater than 100 µM. Further, the 50% inhibitory concentration (IC50) in the data set with SKBR3 was greater than 100 µM.
`Cc1cc(-c2cccc(C3C(C#N)=C(N)Oc4[nH]nc(C)c43)c2)cnc1F` (stereo not shown) [5b, 6-Amino-4-(3-(6-fluoro-5-methylpyridin-3-yl)phenyl)-3-methyl-1,4-dihydropyrano [2,3-c] Pyrazole-5-carbonitrile] came in with a melting point of 214 to 215 °C. In the data set on MDA-MB-231, this compound returned a half-inhibitory concentration (IC50) of 13.5 µM. This compound yielded an IC50 in the data set with BT-474 cells of 23.7 µM. Further, in the data set with T47D, the IC50 amounted to 27.5 µM. The compound further returned an IC50 in the data set with MCF-10A cells of 90.5 µM. In the data set with MCF-7 cells (72 h), the “effect on viability of MCF-7 cells” value is recorded as “dose–dependent decrease”; the IC50 was 17.2 µM and 17 µM. The IC50 in the data set with MCF-7 cells (Homo sapiens, MCF7, 72 h) amounted to 17.8 µM. Further, the IC50 with SKBR3 is greater than 100 µM. 0.96 µM corresponded to half-maximal inhibition at CDK1 [1] (IC50).
Take `O=C(c1cc(Cc2n[nH]c(=O)c3ccccc23)ccc1F)N1CCN(C(=O)C2CC2)CC1` [Olaparib, reference compound]: 3.28 µM corresponded to half-maximal inhibition in the data set with MCF-7 cells (Homo sapiens, MCF7, 72 h) (IC50).
Turning to `Cc1n[nH]c2c1C(c1cccc(-c3ccncc3)c1)C(C#N)=C(N)O2` (stereo not shown) [5c, 6-Amino-3-methyl-4-(3-(pyridin-4-yl)phenyl)-1,4-dihydropyrano [2,3-c] Pyrazole-5-carbonitrile], the melting point lay within 245 to 247 °C. In the data set on MDA-MB-231, this compound displayed an IC50 of 15 µM. For the same compound, the IC50 with BT-474 cells was 21.3 µM. Further, the IC50 with T47D turned out to be 33.7 µM. Moreover, the IC50 with MCF-10A cells came out at 88.2 µM. Moreover, the IC50 in the data set with SKBR3 amounted to 69.4 µM.
Regarding `Cc1cc(-c2ccc(C3C(C#N)=C(N)Oc4[nH]nc(C)c43)cc2)cnc1F` (stereo not shown) [5f, 6-Amino-4-(4-(6-fluoro-5-methylpyridin-3-yl)phenyl)-3-methyl-1,4-dihydropyrano [2,3-c] Pyrazole-5-carbonitrile], the melting point was 268 to 269 °C. The compound also came in with an IC50 in the data set with MDA-MB-231 of 19.1 µM. Further, the IC50 with BT-474 cells is 15.2 µM. The compound further yielded an IC50 in the data set on T47D of 45.8 µM. In the data set with MCF-10A cells, this compound gave an IC50 greater than 100 µM. Further, the “effect on viability of MCF-7 cells” value in the data set with MCF-7 cells (72 h) is “dose–dependent decrease”. In addition, in the data set with MCF-7 cells (Homo sapiens, MCF7, 72 h), the IC50 came to 23.8 µM. For the same compound, in the data set with SKBR3, the IC50 was greater than 100 µM. At CDK1 [1], this compound had an IC50 of 7.16 µM.
For `Cc1cc(-c2cccc(C3C(C#N)=C(N)Oc4[nH]nc(C)c43)c2)cnc1Cl` (stereo not shown) [5d, 6-Amino-4-(3-(6-chloro-5-methylpyridin-3-yl)phenyl)-3-methyl-1,4-dihydropyrano [2,3-c] Pyrazole-5-carbonitrile], the melting point was 212 to 214 °C. Also, in the data set with MCF-7 cells (72 h), the “effect on viability of MCF-7 cells” value is “dose–dependent decrease”. Besides, half-maximal inhibition in the data set on MCF-7 cells (Homo sapiens, MCF7, 72 h) (IC50) was put at 38.9 µM.
Regarding `CC(C)CC(=O)Nc1[nH]nc2c1CN(C(=O)C1CCN(C)CC1)C2(C)C` [PHA-793887], at CDK1 [2], the IC50 is 0.06 µM.
